Results taken from patent publication US6312703A, “Compressed lecithin preparations” (Lecigel, LLC, priority 1999, dated 2001).

Legend:
serum cholesterol = assay: Cholesterol lowering in hamsters fed LCP, Lescol or the combination, bled after two weeks; assay type: in vivo, Golden Syrian hamsters; conditions: diet with 2% LCP and/or 0.01% Lescol
Protocol: A study was performed to compare the effects of cholesterol reduction using the 2% LCP alone, 0.01% Lescol (a HMG CoA reductase inhibitor) alone, and a combination of 0.01% Lescol mixed with the phospholipids and extruded to create the LCP. The dosage was administered to Golden Syrian hamsters which were bled after two weeks to determine the cholesterol lowering effects.

LDL cholesterol = conditions: 60 hypercholesterolemic patients; Gurevich et al.; cited from earlier work

Row | SMILES | HDL (serum cholesterol) | Non HDL (serum cholesterol) | Total Cholesterol (serum cholesterol) | Lovastatin dose required to reduce LDL cholesterol level to a value of 130 (LDL cholesterol) [mg/day]
1 | CC(C)n1c(/C=C/[C@@H](O)C[C@@H](O)CC(=O)O)c(-c2ccc(F)cc2)c2ccccc21 (racemic) [Lescol] | 1.77 ± 0.16 | 1.61 ± 0.63 | 3.37 ± 0.67 | –
2 | CC[C@H](C)C(=O)O[C@H]1C[C@@H](C)C=C2C=C[C@H](C)[C@H](CC[C@@H]3C[C@@H](O)CC(=O)O3)[C@H]21 [Lovastatin] | – | – | – | 40
